One data set has as its target T1, PDE9 (Homo sapiens, UniProt O76083).
T1 construct: made in house
Put plainly: PDE9-inhibiting activity (SPA, 3H-cGMP degradation). It counts as biochemical. As to conditions: PDE9-inhibiting activity (IC50 values), cGMP 1 μM, 30° C. Here is the method: The PDE9 used in the present experiment was expressed/purified by the method as in, for example, Guipponi et al., and Fisher et., al. (Fisher, D. A., et al., J. Biol. Chem., 273: pp. 15559-15564 (1998), Guipponi, M., et al., Hum. Genet., 103: pp. 386-392 (1998)).
(2) Evaluation of PDE9-Inhibiting Activity
The PDE9-inhibiting activity was measured by the following method. That is, to a buffer solution containing tris(hydroxymethyl)aminomethane-hydrochloric acid (40 mM, pH 8.0), magnesium chloride (5 mM), and 2-mercaptoethanol (4 mM) were added cGMP (1 μM) and ^3H-cGMP (0.33 μCi/ml) to give a substrate buffer solution. A test substance solution and an enzyme solution which had been adjusted to an optimal concentration were added thereto to perform a reaction at 30° C. The enzyme reaction was stopped by the addition of Scintillation Proximity Assay (SPA) Beads (Perkin Elmer, USA) containing 5 mM 3-isobutyl-1-methylxanthine (IBMX). For the enzyme activity, the amount of 5′-GMP, which is a reaction degradation product bound to SPA beads, was measured with a TopCount microplate reader (Hewlett Packard, USA).
The inhibitory rate was calculated by taking the radioactivity of the control containing no test substance as (A), taking the radioactivity of the blank containing no enzyme as (B), and taking the radioactivity of the test substance as (C), and using the following equation. Inhibitory rate=100−{(C)−(B)/(A)−(B)}×100(%)

Counter-ions that a name gives are not always drawn.

T1 sequence (O76083 whole entry): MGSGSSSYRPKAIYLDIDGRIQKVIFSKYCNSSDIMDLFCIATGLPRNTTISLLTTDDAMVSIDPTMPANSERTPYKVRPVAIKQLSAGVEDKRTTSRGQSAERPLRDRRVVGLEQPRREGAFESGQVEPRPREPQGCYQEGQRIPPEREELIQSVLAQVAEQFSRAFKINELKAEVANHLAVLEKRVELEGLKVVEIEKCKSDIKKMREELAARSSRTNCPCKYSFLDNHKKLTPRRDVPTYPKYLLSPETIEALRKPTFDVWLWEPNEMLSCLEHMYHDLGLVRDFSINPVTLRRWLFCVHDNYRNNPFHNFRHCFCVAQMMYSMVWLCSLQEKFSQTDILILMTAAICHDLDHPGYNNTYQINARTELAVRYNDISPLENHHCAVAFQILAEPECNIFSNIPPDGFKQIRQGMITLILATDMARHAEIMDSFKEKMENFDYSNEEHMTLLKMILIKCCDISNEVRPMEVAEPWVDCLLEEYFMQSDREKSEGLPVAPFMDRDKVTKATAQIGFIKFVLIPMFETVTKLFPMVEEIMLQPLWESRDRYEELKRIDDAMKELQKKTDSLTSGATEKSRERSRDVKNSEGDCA

With `Cc1cc2c(cc1C(=O)N1CC(C)(C)c3cc(Br)cnc31)[nH]c(=O)c1nnc(C3CCOCC3)n12` [Example 33], the IC50 (in general, the midpoint of a concentration-inhibition curve) against PDE9 turned out to be 0.81 nM.

Take `COc1cc2c(cn1)N(C(=O)c1cc3[nH]c(=O)c4cnc(C5CCOC5)n4c3cc1C)CC2` (stereo not drawn) [Example 27]: the melting point (commonly the temperature of the solid-liquid transition) lay in the range of 241 to 243 °C. Further, at PDE9, the half-maximal inhibitory concentration (IC50) is 84 nM. The corresponding values for `CCc1cnc2c(c1)CCN2C(=O)c1cc2[nH]c(=O)c3cnc(C4CCOCC4)n3c2cc1C` [Example 13] are 331 to 333 °C and 14 nM. `CCc1cnc2c(c1)CCN2C(=O)c1cc2[nH]c(=O)c3nnc(CC4CC4)n3c2cc1C` [Example 6, 1-(cyclopropylmethyl)-7-[(5-ethyl-2,3-dihydro-11′-pyrrolo[2,3-b]pyridin-1-yl)carbonyl]-8-methyl[1,2,4]triazolo[4,3-a]quinoxalin-4(5H)-one dihydrochloride] showed an IC50 on PDE9 of 64 nM.

On PDE9, `Cc1cc2c(cc1C(=O)N1Cc3c(F)ccc(F)c3C1)[nH]c(=O)c1nnc(C3CCC3)n12` [Example 36] returned an IC50 of 53 nM. The IC50 values of the last two compounds are within 1.5-fold of each other. `COc1cc2c(cn1)N(C(=O)c1cc3[nH]c(=O)c4cnc(C5CCOC5)n4c3cc1C)CC2` (single isomer, unassigned) [Example 27(a)] had a concentration for half-maximal inhibition (IC50) on PDE9 of 137 nM.

As to `Cc1cc2c(cc1C(=O)N1Cc3cccc(CN(C)C)c3C1)[nH]c(=O)c1cnc(C3CCOCC3)n12` [Example 11], the IC50 at PDE9 was determined as 31 nM. Compared with the last compound, the IC50 is about 4.4-fold lower. Consider `COc1cc2c(cn1)N(C(=O)c1cc3[nH]c(=O)c4cnc(C5CCOCC5)n4c3cc1Cl)CC2` [Example 21], for which the melting point was 314 to 316 °C (dec.). At PDE9, this compound registered a half-maximal inhibitory concentration (IC50) of 22 nM. The corresponding values for `COc1cc2c(cn1)N(C(=O)c1cc3[nH]c(=O)c4cnc(C5CCOCC5)n4c3cc1F)CC2` [Example 2, 8-fluoro-7-[(5-methoxy-2,3-dihydro-1H-pyrrolo[2,3-c]pyridin-1-yl)carbonyl]-1-(tetrahydro-2H-pyran-4-yl)imidazo[1,5-a]quinoxalin-4(5H)-one] are 275 to 277 °C and 51 nM. For the compound `COCc1cc2c(cc1C(=O)N1CCc3cc(OC)ncc31)[nH]c(=O)c1cnc(C3CCOC3)n12` (single isomer, unassigned; (-)) [Example 4(a), (−)-7-[(5-methoxy-2,3-dihydro-1H-pyrrolo[2,3-c]pyridin-1-yl)carbonyl]-8-(methoxymethyl)-1-(tetrahydrofuran-3-yl)imidazo[1,5-a]quinoxalin-4(5H)-one dihydrochloride], half-maximal inhibition against PDE9 (IC50) was put at 62 nM. Still for that read-out and setting: the same measure for `Cc1cc2c(cc1C(=O)N1Cc3c(F)ccc(F)c3C1)[nH]c(=O)c1nnc(CC3CC3)n12` [Example 38]: 28 nM. `COCc1cc2c(cc1C(=O)N1CCc3cc(Cl)ccc31)[nH]c(=O)c1nnc(C3CCC3)n12.Cl` [Example 46] displayed a melting point of 170 to 172 °C. The same compound gave an IC50 at PDE9 of 13 nM. `Cc1cc2c(cc1C(=O)N1CCc3cc(F)c(F)cc31)[nH]c(=O)c1cnc(C3CCOC3)n12` (single isomer, unassigned) [Example 30(a)] gave a concentration for half-maximal inhibition (IC50) against PDE9 of 38 nM. The same measure, in the same setting: the same measure for `Cc1cc2c(cc1C(=O)N1Cc3c(F)ccc(F)c3C1)[nH]c(=O)c1cnc(C3CCOC3)n12` (single isomer, unassigned) [Example 39(b)]: 14 nM. Take `COc1cc2c(cc1C(=O)N1CCc3cc(Br)cnc31)[nH]c(=O)c1cnc(C3CCOCC3)n12` [Example 23]: the melting point was 316 to 319 °C (dec.). The compound further came in with a 50% inhibitory concentration (IC50) at PDE9 of 4.9 nM. With `CCc1cnc2c(c1)CCN2C(=O)c1cc2[nH]c(=O)c3cnc(C4CCOC4)n3c2cc1C` (stereo not drawn) [Example 28], the IC50 at PDE9 is 52 nM. On the same count and under the same terms, the same measure for `COCc1cccc2c1CN(C(=O)c1cc3[nH]c(=O)c4cnc(C5CCOCC5)n4c3cc1C)C2` [Example 14]: 14 nM. On the same count and under the same terms, the figure for `Cc1cc2c(cc1C(=O)N1CCc3cc(Br)cnc31)[nH]c(=O)c1cnc(C3CCOC3)n12` (single isomer, unassigned) [Example 29(a)] is 24 nM; for `CCc1cc2c(cc1C(=O)N1CCc3cc(F)ccc31)[nH]c(=O)c1nnc(CC3CC3)n12` [Example 17] it is 8.5 nM. Still for that read-out and setting: the same measure for `Cc1cc2c(cc1C(=O)N1Cc3c(F)ccc(F)c3C1)[nH]c(=O)c1cnc(C3CCOC3)n12` (single isomer, unassigned) [Example 39(a)]: 52 nM; for `CCc1cnc2c(c1)CCN2C(=O)c1cc2[nH]c(=O)c3cnc(C4CCOC4)n3c2cc1C` (single isomer, unassigned) [Example 28(b)]: 47 nM. `CCc1cc2c(cc1C(=O)N1CCc3cc(Br)cnc31)[nH]c(=O)c1nnc(C3CCC3)n12` [Example 35] came in with a half-inhibitory concentration (IC50) on PDE9 of 19 nM.

Regarding `COCc1cc2c(cc1C(=O)N1CCc3cc(Br)cnc31)[nH]c(=O)c1nnc(C3CCC3)n12` [Example 41], the melting point was 174 to 176 °C. The compound also returned an IC50 against PDE9 of 18 nM. On PDE9, `Cc1cnc2c(c1)CCN2C(=O)c1cc2[nH]c(=O)c3cnc(C4CCOC4)n3c2cc1C` (single isomer, unassigned) [Example 26(a)] displayed an IC50 of 152 nM. `COCc1cc2c(cc1C(=O)N1Cc3cccc(F)c3C1)[nH]c(=O)c1cnc(C3CCOC3)n12` (stereo not drawn) [Example 42] displayed a melting point of 154 to 156 °C. The same compound returned a concentration for half-maximal inhibition (IC50) at PDE9 of 13 nM.

`Cc1cc2c(cc1C(=O)N1CCc3cc(Br)cnc31)[nH]c(=O)c1nnc(CC3CC3)n12` [Example 24] displayed a melting point of 268 to 271 °C. This compound yielded a half-inhibitory concentration (IC50) on PDE9 of 17 nM. On PDE9, `CCc1cc2c(cc1C(=O)N1CCc3cc(Cl)ccc31)[nH]c(=O)c1nnc(CC3CC3)n12` [Example 16] displayed an IC50 of 3.3 nM.

Consider `CCc1cnc2c(c1)CCN2C(=O)c1cc2[nH]c(=O)c3cnc(C4CCOC4)n3c2cc1COC` (single isomer, unassigned) [Example 40(b)], for which half-maximal inhibition against PDE9 (IC50) required 16 nM. With `COC1CC(c2nnc3c(=O)[nH]c4cc(C(=O)N5CCc6cc(Br)ccc65)c(C)cc4n23)C1.Cl` (stereo not drawn) [Example 15], the melting point is 188 to 189 °C. On PDE9, this compound came in with a 50% inhibitory concentration (IC50) of 2.8 nM. The corresponding values for `Cc1cc2c(cc1C(=O)N1CC(C)c3cc(Cl)ccc31)[nH]c(=O)c1nnc(C3CCOCC3)n12.Cl` (stereo not drawn) [Example 32] are 231 to 234 °C and 2.6 nM. The corresponding values for `COCc1cc2c(cc1C(=O)N1CCc3cc(Br)cnc31)[nH]c(=O)c1nnc(CC3CC3)n12` [Example 44] are 168 to 170 °C and 6.1 nM. As to `COCc1cc2c(cc1C(=O)N1Cc3c(F)ccc(F)c3C1)[nH]c(=O)c1cnc(C3CCOC3)n12` (single isomer, unassigned) [Example 45(a)], on PDE9, inhibition was half-maximal at 26 nM (IC50). Still for that read-out and setting: the figure for `O=C(c1cc2[nH]c(=O)c3cnc(C4CCOCC4)n3c2cc1F)N1CCc2cc(Cl)ccc21` [Example 12] is 3.6 nM; for `CCc1cnc2c(c1)CCN2C(=O)c1cc2[nH]c(=O)c3cnc(C4CCOC4)n3c2cc1COC` (single isomer, unassigned) [Example 40(a)] it is 77 nM; for `Cc1cc2c(cc1C(=O)N1CCc3cc(F)c(F)cc31)[nH]c(=O)c1cnc(C3CCOC3)n12` (stereo not drawn) [Example 30] it is 11 nM. On the same count and under the same terms, the figure for `COCC1Cc2cc(Cl)ccc2N1C(=O)c1cc2[nH]c(=O)c3nnc(C4CCOCC4)n3c2cc1C` (stereo not drawn) [Example 9] is 1.3 nM. Compound `COCc1cc2c(cc1C(=O)N1CCc3cc(C)cnc31)[nH]c(=O)c1cnc(C3CCOC3)n12` (single isomer, unassigned) [Example 25(a)] gave a concentration for half-maximal inhibition (IC50) against PDE9 of 62 nM. Same read-out and setting: the same measure for `COC1CC(c2nnc3c(=O)[nH]c4cc(C(=O)N5CCc6cc(Br)cnc65)c(C)cc4n23)C1` (stereo not drawn) [Example 34]: 7.5 nM; for `Cc1cc2c(cc1C(=O)N1CCc3cc(Br)cnc31)[nH]c(=O)c1cnc(C3CCOC3)n12` (stereo not drawn) [Example 29]: 15 nM. Take `CCc1cc2c(cc1C(=O)N1CCc3cc(Br)cnc31)[nH]c(=O)c1nnc(CC3CC3)n12` [Example 18]: on PDE9, half-maximal inhibition (IC50) was put at 5.4 nM. Against the preceding compound, the IC50 is about 2.8-fold lower. On the same count and under the same terms, the figure for `COCc1cc2c(cc1C(=O)N1CCc3cc(Br)cnc31)[nH]c(=O)c1cnc(C3CCOC3)n12` (single isomer, unassigned) [Example 43(a)] is 25 nM; for `CCc1cc2c(cc1C(=O)N1Cc3c(F)ccc(F)c3C1)[nH]c(=O)c1nnc(C3CCC3)n12` [Example 37] it is 53 nM; for `CCc1cnc2c(c1)CCN2C(=O)c1cc2[nH]c(=O)c3cnc(C4CCOC4)n3c2cc1C` (single isomer, unassigned) [Example 28(a)] it is 139 nM. The same measure, in the same setting: the figure for `Cc1cnc2c(c1)CCN2C(=O)c1cc2[nH]c(=O)c3cnc(C4CCOC4)n3c2cc1C` (single isomer, unassigned) [Example 26(b)] is 45 nM. Consider `CCc1cnc2c(c1)CCN2C(=O)c1cc2[nH]c(=O)c3nnc(CC4CC4)n3c2cc1C` (as salt: hydrochloride) [Example 6, 1-(cyclopropylmethyl)-7-[(5-ethyl-2,3-dihydro-11′-pyrrolo[2,3-b]pyridin-1-yl)carbonyl]-8-methyl[1,2,4]triazolo[4,3-a]quinoxalin-4(5H)-one dihydrochloride], for which the melting point was 173 to 175 °C.

Source of the values: patent US8901126B2, “Substituted imidazo[1,5-A]quinoxalin-4-ones are useful for preventing or treating storage dysfunction, voiding dysfunction and bladder/urethral diseases” (priority 2010, dated 2014).
